According to patent US9714228B2, “Dihydrofuran derivatives as insecticidal compounds” (Syngenta Participations AG, priority 2010, dated 2017):

What was measured:
Assay type in all cases: in vivo
Tetranychus urticae = assay: Tetranychus urticae, sprayed bean leaf discs; conditions: foliar, 192 h, bean leaf discs sprayed at 200 ppm, mixed ages, checked 8 days later
From the text: Tetranychus urticae (Two-Spotted Spider Mite): Bean leaf discs on agar in 24-well microtiter plates were sprayed with test solutions at an application rate of 200 ppm. After drying, the leaf discs are infested with mite populations of mixed ages. 8 days later, discs are checked for egg mortality, larval mortality, and adult mortality.

Diabrotica balteata = assay: Diabrotica balteata, L2 larvae on treated artificial diet; conditions: 120 h, 200 ppm (concentration in well 18 ppm), 5 days incubation
Method: (§1) Diabrotica balteata (Corn Root Worm): A 24-well microtiter plate (MTP) with artificial diet was treated with test solutions at an application rate of 200 ppm (concentration in well 18 ppm) by pipetting. After drying, the MTPs were infested with L2 larvae (6-10 per well). After an incubation period of 5 days, samples were checked for larval mortality and growth regulation.

Myzus persicae = Myzus persicae (sachet), mixed population, sucrose solution; conditions: 120 h, application rate 12.5 ppm, mortality 5 days after infestation
From the text: Myzus persicae (Sachet) (Green Peach Aphid) Mixed Population Test compounds were applied by pipette into 24 well plates and mixed with Sucrose solution. The plates were closed with a stretched Parafilm. A plastic stencil with 24 holes is placed onto the plate and infested pea seedlings were placed directly on the Parafilm. The infested plate is closed with a gel blotting paper and another plastic stencil and then turned upside down. 5 days after infestation the samples were checked on mortality. Application rate: 12.5 ppm.

Plutella xylostella = assay: Plutella xylostella, L2 larvae on treated artificial diet; conditions: 144 h, 200 ppm (concentration in well 18 ppm), 6 days incubation
Method: as §1, with “Plutella xylostella (Diamond Back Moth):” for “Diabrotica balteata (Corn Root Worm): A”, “(7-12” for “(6-10”, “6” for “5”

Spodoptera littoralis [1] = assay: Spodoptera littoralis, sprayed cotton leaf discs, L1 larvae; conditions: foliar, 72 h, cotton leaf discs sprayed at 200 ppm, 3 days after treatment
From the text: Spodoptera littoralis (Egyptian Cotton Leafworm): Cotton leaf discs were placed on agar in a 24-well microtiter plate and sprayed with test solutions at an application rate of 200 ppm. After drying, the leaf discs were infested with 5 L1 larvae. The samples were checked for mortality, feeding behavior, and growth regulation 3 days after treatment (DAT).

Heliothis virescens = assay: Heliothis virescens, eggs on treated artificial diet; conditions: 96 h, 200 ppm (concentration in well 18 ppm), 4 days incubation
Method: Heliothis virescens (Tobacco Budworm): Eggs (0-24 h old) were placed in 24-well microtiter plate on artificial diet and treated with test solutions at an application rate of 200 ppm (concentration in well 18 ppm) by pipetting. After an incubation period of 4 days, samples were checked for egg mortality, larval mortality, and growth regulation.

Thrips tabaci = assay: Thrips tabaci, sprayed sunflower leaf discs; conditions: foliar, 168 h, sunflower leaf discs sprayed at 200 ppm, mixed ages, mortality after 7 days
Method: Thrips tabaci (Onion Thrips): Sunflower leaf discs were placed on agar in a 24-well microtiter plate and sprayed with test solutions at an application rate of 200 ppm. After drying, the leaf discs were infested with an […] population of mixed ages. After an incubation period of 7 days, samples were checked for mortality.

Spodoptera littoralis [2] = assay: Spodoptera littoralis (systemic), salad grown on treated agar, eggs; conditions: 120 h, application rate 12.5 ppm, checked 5 days after infestation (mortality, repellent effect, feeding behavior, growth regulation)
From the text: Spodoptera littoralis (Systemic) (Egyptian Cotton Leaf Worm) Test compounds were applied by pipette into 24 well plates and mixed with agar. Salad seeds were placed on the agar and the multi well plate is closed by another plate which contains also agar. After 7 days the roots have absorbed the compound and the salad has grown into the lid plate. The salad leafs were now cut off into the lid plate. Spodoptera eggs were pipette through a plastic stencil on a humid gel blotting paper and the plate closed with it. The samples are checked for mortality, repellent effect, feeding behavior, and growth regulation 5 days after infestation. Application rate: 12.5 ppm

Cc1cc(C2=COC(c3cc(Cl)cc(Cl)c3)(C(F)(F)F)C2)ccc1C(=O)NCc1ccc(Cl)nc1 (stereo not drawn) [Compound D13]
≥ 80%: pest or weed control at 200 ppm (Tetranychus urticae) | pest or weed control at 200 ppm (Diabrotica balteata) | pest or weed control at 12.5 ppm (Myzus persicae) | pest or weed control at 200 ppm (Plutella xylostella) | pest or weed control at 200 ppm (Spodoptera littoralis [1]) | pest or weed control at 200 ppm (Heliothis virescens)

Cc1cc(C2=COC(c3cc(Cl)cc(Cl)c3)(C(F)(F)F)C2)ccc1C(=O)NC1CC2CCC1C2 (stereo not drawn) [Compound D22]
≥ 80%: pest or weed control at 200 ppm (Diabrotica balteata) | pest or weed control at 200 ppm (Thrips tabaci) | pest or weed control at 200 ppm (Plutella xylostella)

Cc1cc(C2=COC(c3cc(Cl)cc(Cl)c3)(C(F)(F)F)C2)ccc1C(=O)NC(C)c1ccccc1 (stereo not drawn) [Compound D11]
≥ 80%: pest or weed control at 200 ppm (Tetranychus urticae) | pest or weed control at 200 ppm (Diabrotica balteata) | pest or weed control at 12.5 ppm (Myzus persicae) | pest or weed control at 200 ppm (Thrips tabaci) | pest or weed control at 200 ppm (Plutella xylostella) | pest or weed control at 200 ppm (Spodoptera littoralis [1]) | pest or weed control at 200 ppm (Heliothis virescens)

Cc1cc(C2=CC(c3cc(Cl)cc(Cl)c3)(C(F)(F)F)OC2)ccc1C(=O)NC1CC(=NOCC(F)(F)F)C1 (stereo not drawn) [Compound A79]
≥ 80%: pest or weed control at 200 ppm (Tetranychus urticae) | pest or weed control at 200 ppm (Diabrotica balteata) | pest or weed control at 200 ppm (Thrips tabaci) | pest or weed control at 200 ppm (Plutella xylostella) | pest or weed control at 200 ppm (Spodoptera littoralis [1]) | pest or weed control at 200 ppm (Heliothis virescens)

Cc1cc(C2=COC(c3cc(Cl)cc(Cl)c3)(C(F)(F)F)C2)ccc1C(=O)Nc1cccc(F)c1 (stereo not drawn) [Compound D14]
≥ 80%: pest or weed control at 200 ppm (Tetranychus urticae) | pest or weed control at 200 ppm (Diabrotica balteata) | pest or weed control at 12.5 ppm (Myzus persicae) | pest or weed control at 200 ppm (Thrips tabaci) | pest or weed control at 200 ppm (Plutella xylostella) | pest or weed control at 200 ppm (Spodoptera littoralis [1]) | pest or weed control at 200 ppm (Heliothis virescens)

N#Cc1cc(C2=CC(c3cc(Cl)cc(Cl)c3)(C(F)(F)F)OC2)ccc1-n1cc(Br)cn1 (stereo not drawn) [Compound G2, 2-(4-Bromo-pyrazol-1-yl)-5-[5-(3,5-dichloro-phenyl)-5-trifluoromethyl-2,5-dihydro-furan-3-yl]-benzonitrile]
≥ 80%: pest or weed control at 200 ppm (Spodoptera littoralis [1])

Cc1cc(NC(=O)c2ccc(C3=COC(c4cc(Cl)cc(Cl)c4)(C(F)(F)F)C3)cc2C)n(C)n1 (stereo not drawn) [Compound D16]
≥ 80%: pest or weed control at 200 ppm (Diabrotica balteata) | pest or weed control at 12.5 ppm (Myzus persicae) | pest or weed control at 200 ppm (Thrips tabaci) | pest or weed control at 200 ppm (Plutella xylostella) | pest or weed control at 200 ppm (Spodoptera littoralis [1]) | pest or weed control at 200 ppm (Heliothis virescens)

COCC(C)NC(=O)c1ccc(C2=COC(c3cc(Cl)cc(Cl)c3)(C(F)(F)F)C2)cc1C (stereo not drawn) [Compound D4]
≥ 80%: pest or weed control at 200 ppm (Tetranychus urticae) | pest or weed control at 200 ppm (Diabrotica balteata) | pest or weed control at 12.5 ppm (Myzus persicae) | pest or weed control at 200 ppm (Thrips tabaci) | pest or weed control at 200 ppm (Plutella xylostella) | pest or weed control at 200 ppm (Spodoptera littoralis [1]) | pest or weed control at 200 ppm (Heliothis virescens)

COc1ccc(CNC(=O)c2ccc(C3=COC(c4cc(Cl)cc(Cl)c4)(C(F)(F)F)C3)cc2C)cc1 (stereo not drawn) [Compound D12]
≥ 80%: pest or weed control at 200 ppm (Tetranychus urticae) | pest or weed control at 200 ppm (Diabrotica balteata) | pest or weed control at 12.5 ppm (Myzus persicae) | pest or weed control at 200 ppm (Thrips tabaci) | pest or weed control at 200 ppm (Plutella xylostella) | pest or weed control at 200 ppm (Spodoptera littoralis [1]) | pest or weed control at 200 ppm (Heliothis virescens)

Cc1cc(C2=COC(c3cc(Cl)cc(Cl)c3)(C(F)(F)F)C2)ccc1C(=O)NCc1ccccc1 (stereo not drawn) [Compound D9]
≥ 80%: pest or weed control at 200 ppm (Tetranychus urticae) | pest or weed control at 200 ppm (Diabrotica balteata) | pest or weed control at 12.5 ppm (Myzus persicae) | pest or weed control at 200 ppm (Thrips tabaci) | pest or weed control at 200 ppm (Plutella xylostella) | pest or weed control at 200 ppm (Spodoptera littoralis [1]) | pest or weed control at 200 ppm (Heliothis virescens)

Cc1cc(C2=COC(c3cc(Cl)cc(Cl)c3)(C(F)(F)F)C2)ccc1C(=O)NC1(C)CSC1 (stereo not drawn) [Compound D18]
≥ 80%: pest or weed control at 200 ppm (Tetranychus urticae) | pest or weed control at 200 ppm (Diabrotica balteata) | pest or weed control at 12.5 ppm (Myzus persicae) | pest or weed control at 200 ppm (Thrips tabaci) | pest or weed control at 200 ppm (Plutella xylostella) | pest or weed control at 200 ppm (Spodoptera littoralis [1]) | pest or weed control at 200 ppm (Heliothis virescens)

Cc1csc(NC(=O)c2ccc(C3=COC(c4cc(Cl)cc(Cl)c4)(C(F)(F)F)C3)cc2C)n1 (stereo not drawn) [Compound D17]
≥ 80%: pest or weed control at 200 ppm (Diabrotica balteata) | pest or weed control at 12.5 ppm (Myzus persicae) | pest or weed control at 200 ppm (Plutella xylostella) | pest or weed control at 200 ppm (Spodoptera littoralis [1]) | pest or weed control at 200 ppm (Heliothis virescens)

Cc1cc(C2=COC(c3cc(Cl)cc(Cl)c3)(C(F)(F)F)C2)ccc1C(=O)NCc1ccccc1F (stereo not drawn) [Compound D10]
≥ 80%: pest or weed control at 200 ppm (Tetranychus urticae) | pest or weed control at 200 ppm (Diabrotica balteata) | pest or weed control at 12.5 ppm (Myzus persicae) | pest or weed control at 200 ppm (Thrips tabaci) | pest or weed control at 200 ppm (Plutella xylostella) | pest or weed control at 200 ppm (Spodoptera littoralis [1]) | pest or weed control at 200 ppm (Heliothis virescens)

Cc1cc(C2=COC(c3cc(Cl)cc(Cl)c3)(C(F)(F)F)C2)ccc1C(=O)NC1CCC1 (stereo not drawn) [Compound D23]
≥ 80%: pest or weed control at 200 ppm (Tetranychus urticae) | pest or weed control at 200 ppm (Diabrotica balteata) | pest or weed control at 12.5 ppm (Myzus persicae) | pest or weed control at 200 ppm (Thrips tabaci) | pest or weed control at 200 ppm (Plutella xylostella) | pest or weed control at 200 ppm (Spodoptera littoralis [1]) | pest or weed control at 200 ppm (Heliothis virescens)

CCC(C)NC(=O)c1ccc(C2=COC(c3cc(Cl)cc(Cl)c3)(C(F)(F)F)C2)cc1C (stereo not drawn) [Compound D7]
≥ 80%: pest or weed control at 200 ppm (Diabrotica balteata) | pest or weed control at 12.5 ppm (Myzus persicae) | pest or weed control at 200 ppm (Plutella xylostella) | pest or weed control at 200 ppm (Spodoptera littoralis [1]) | pest or weed control at 200 ppm (Heliothis virescens)

Cc1cc(C2=COC(c3cc(Cl)cc(Cl)c3)(C(F)(F)F)C2)ccc1C(=O)NC1CS(=O)(=O)C1 (stereo not drawn) [Compound D24, 4-[5-(3,5-Dichloro-phenyl)-5-trifluoromethyl-4,5-dihydro-furan-3-yl]-N-(1,1-dioxo-1lambda*6*-thietan-3-yl)-2-methyl-benzamide]
≥ 80%: pest or weed control at 200 ppm (Tetranychus urticae) | pest or weed control at 12.5 ppm (Spodoptera littoralis [2]) | pest or weed control at 200 ppm (Diabrotica balteata) | pest or weed control at 12.5 ppm (Myzus persicae) | pest or weed control at 200 ppm (Thrips tabaci) | pest or weed control at 200 ppm (Plutella xylostella) | pest or weed control at 200 ppm (Spodoptera littoralis [1]) | pest or weed control at 200 ppm (Heliothis virescens)

Cc1cc(C2=CC(c3cc(Cl)cc(Cl)c3)(C(F)(F)F)OC2)ccc1C(=O)NCc1ccc2c(c1)OCCO2 (stereo not drawn) [Compound A44]
≥ 80%: pest or weed control at 200 ppm (Diabrotica balteata) | pest or weed control at 200 ppm (Plutella xylostella) | pest or weed control at 200 ppm (Spodoptera littoralis [1]) | pest or weed control at 200 ppm (Heliothis virescens)

Cc1cc(C2=COC(c3cc(Cl)cc(Cl)c3)(C(F)(F)F)C2)ccc1C(=O)NCCC(F)(F)F (stereo not drawn) [Compound D6]
≥ 80%: pest or weed control at 200 ppm (Tetranychus urticae) | pest or weed control at 200 ppm (Diabrotica balteata) | pest or weed control at 12.5 ppm (Myzus persicae) | pest or weed control at 200 ppm (Thrips tabaci) | pest or weed control at 200 ppm (Plutella xylostella) | pest or weed control at 200 ppm (Spodoptera littoralis [1]) | pest or weed control at 200 ppm (Heliothis virescens)

Cc1cc(C2=COC(c3cc(Cl)cc(Cl)c3)(C(F)(F)F)C2)ccc1C(=O)NCC(F)(F)F (stereo not drawn) [Compound D1]
≥ 80%: pest or weed control at 12.5 ppm (Spodoptera littoralis [2]) | pest or weed control at 200 ppm (Diabrotica balteata) | pest or weed control at 200 ppm (Thrips tabaci) | pest or weed control at 200 ppm (Plutella xylostella) | pest or weed control at 200 ppm (Spodoptera littoralis [1]) | pest or weed control at 200 ppm (Heliothis virescens)

CCCCNC(=O)c1ccc(C2=COC(c3cc(Cl)cc(Cl)c3)(C(F)(F)F)C2)cc1C (stereo not drawn) [Compound D3]
≥ 80%: pest or weed control at 200 ppm (Tetranychus urticae) | pest or weed control at 200 ppm (Diabrotica balteata) | pest or weed control at 12.5 ppm (Myzus persicae) | pest or weed control at 200 ppm (Thrips tabaci) | pest or weed control at 200 ppm (Plutella xylostella) | pest or weed control at 200 ppm (Spodoptera littoralis [1]) | pest or weed control at 200 ppm (Heliothis virescens)

CSCC(C)(C)NC(=O)c1ccc(C2=COC(c3cc(Cl)cc(Cl)c3)(C(F)(F)F)C2)cc1C (stereo not drawn) [Compound D19]
≥ 80%: pest or weed control at 200 ppm (Tetranychus urticae) | pest or weed control at 200 ppm (Diabrotica balteata) | pest or weed control at 12.5 ppm (Myzus persicae) | pest or weed control at 200 ppm (Plutella xylostella) | pest or weed control at 200 ppm (Spodoptera littoralis [1]) | pest or weed control at 200 ppm (Heliothis virescens)
